Test results reported in publication PMC9317316, “Synthesis and Evaluation of Some New 4H-Pyran Derivatives as Antioxidant, Antibacterial and Anti-HCT-116 Cells of CRC, with Molecular Docking, Antiproliferative, Apoptotic and ADME Investigations” (Pharmaceuticals, 2022).
Values joined by “and” are separate entries in the source; they are usually repeats but may differ in a detail not shown here. Identical values can stand only once.

What was measured:
[1] = tested on: CDK2 protein in HCT-116 cells; assay: Quantitative determination of CDK2 concentration in HCT-116 cell lysates (Human CDK2 ELISA Kit); assay type: cell-based; settings: for downregulation of CDK2 protein expression, fold: as compared to the negative control; for concentration of CDK2 in lysate of treated HCT-116 cells: negative control 7.466 ng/mL
Procedure: First, the commercial Human CDK2 ELISA Kit was used to estimate concentrations of the protein in the lysate of HCT-116 cells treated with 4d and 4k. The results were compared with the positive (cells treated with the reference CDK inhibitor, BMS-265246) and negative control experiments.
The in vitro quantitative measurement of concentration of CDK2 in lysates of HCT-116 cells was carried out using a commercial Human CDK2 ELISA Kit (cat. no.: LS-F22176; LifeSpan Biosciences Inc., Seattle, WA, USA) in the presence or absence of the studied compounds (4d and 4k), following the manufacturer’s instructions. Briefly, standards, blanks or samples were first incubated in the corresponding wells for 90 min at 37 °C. Then, biotinylated detection antibody was added to each well and the plate was incubated for 1 h at 37 °C followed by the addition of an Avidin–Horseradish Peroxidase (HRP) conjugate which binds to the biotin. After incubation of the mixture for 30 min at 37 °C, unbound Avidin–HRP conjugate was washed away and a TMB substrate was then added which reacts with the HRP enzyme, resulting in color development. After that, the reaction was stopped using a sulfuric acid stop solution to terminate the color-development reaction and the optical density of each well was measured using a microplate reader at 450 nm. BMS-265246 was used as the standard drug for inhibition of CDK2. All measurements were performed in triplicate.

[2] = biological target: T1, CDK2/CyclinA2 enzyme (Homo sapiens, UniProt P24941); assay: In vitro CDK2 inhibitory assay (Kinase-Glo); assay type: biochemical; settings: for IC50: deduced from curves over 0.01-10 µM, read-out: IC50 against CDK2
T1 construct: purchased BPS Biosciences, San Diego, CA, USA 79599
Procedure: To further substantiate the promising results of the docking analyses of pyrans 4d and 4K in the ATP active site of CDK2, their in vitro potencies to inhibit the enzyme activity were evaluated over a concentration range of 0.01−10 µM.
CDK-2 inhibition activity of the studied compounds 4d and 4k was evaluated using a commercial CDK2 […] (cat. no.: 79599; BPS Biosciences, San Diego, CA, USA) following the manufacturer’s instructions. Briefly, different concentrations of each compound or the positive control BMS-265246 (0.01, 0. 1, 1 or 10 µM) were incubated with 20 µL of diluted CDK2/CyclinA2 enzyme at 30 °C for 45 min. Following the addition of 50 µL Kinase-Glo® Reagent to each well, the plate was incubated at room temperature for 15 min. Then, the luminescence signal was measured using the microplate reader. The CDK2 inhibitory activity was expressed as inhibition percentage, which was determined by comparison with a control experiment for comparative purposes. IC50 values were deduced from the curves. All measurements were performed in triplicate.

[3] = tested on: S. epidermidis (ATCC 14990); assay: Antibacterial agar diffusion method (inhibition zone); assay type: cell-based
How it was run: (§1)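 IC50 values come from residual colony counts versus initial inoculum: cells at 2 ×10^7 CFU/mL in sterile BHI incubated with compound under shaking, 60 min, 37 °C, then plated for 24 h. Zone assays used agar diffusion with ampicillin (10 µg/well) control.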

[4] = tested on: K. pneumonia (ATCC 700603); assay: as above; assay type: cell-based
How it was run: as §1

[5] = tested on: B. cereus (ATCC 14579); assay: as above; assay type: cell-based
How it was run: as §1

[6] = tested on: E. coli (ATCC 25966); assay: as above; assay type: cell-based; settings: E. coil (ATCC 25966)
How it was run: as §1

[7] = tested on: S. aureus (ATCC 25923); assay: as above; assay type: cell-based
How it was run: as §1

[8] = tested on: B. subtilis (ATCC 6633); assay: as above; assay type: cell-based
How it was run: as §1

[9] = tested on: E. faecalis (ATCC 29122); assay: as above; assay type: cell-based
How it was run: as §1

Structure (SMILES) | downregulation of CDK2 protein expression, fold [1] [fold] | concentration of CDK2 in lysate of treated HCT-116 cells [1] [ng/mL] | decrease of CDK2 activity ([2]; at 0.01 µM) [%] | decrease of CDK2 activity ([2]; at 0.1 µM) [%] | decrease of CDK2 activity ([2]; at 1 µM) [%] | decrease of CDK2 activity ([2]; at 10 µM) [%] | IC50 [2] [nM] | IZ (mm) [3] [mm] | IZ (mm) [4] [mm] | IZ (mm) [5] [mm] | IZ (mm) [6] [mm] | IZ (mm) [7] | IZ (mm) [8] [mm] | IZ (mm) [9]
COc1cc(C2C(C#N)=C(N)OC(C)=C2C(=O)OCc2ccccc2)cc(OC)c1OC (stereo not shown) [4d, 6-Amino-5-cyano-2-methyl-4-(3,4,5-trimethoxy-phenyl)-4H-pyran-3-carboxylic acid benzyl ester] | 1.9 | 4.634 | 26.9 | 41.5 | 72.5 | 89 | 143 | 8.50 ± 0.71 | 4.5 ± 0.7 | 9.50 ± 0.71 | 3.5 ± 0.71 | 9.00 mm and 9.00 ± 1.41 mm | 12.00 ± 1.41 | 14.50 mm and 14.50 ± 0.71 mm
CC1=C(C(=O)OCc2ccccc2)C(c2ccc(C#N)cc2)C(C#N)=C(N)O1 (stereo not shown) [4k, 6-Amino-5-cyano-4-(4-cyano-phenyl)-2-methyl-4H-pyran-3-carboxylic acid benzyl ester] | 1.6 | 3.932 | 21.9 | 42.4 | 66.3 | 83.6 | 214 | 4.50 ± 0.71 | 2.5 ± 0.7 | 7.00 ± 1.41 | 4.5 ± 0.71 | 5.75 ± 0.35 mm | 4.50 ± 0.71 | 5.50 ± 0.71 mm
